Assay results: patent US20220017572A1, “GEMINOID LIPOPEPTIDE COMPOUNDS AND THEIR USES” (Erasmus University Medical Center Rotterdam, priority 2016, published 2022)
pKi: −log10 of the molar value. Residues, ends and D or L forms follow the SMILES beside them.

Experiments:
dengue 2 protease [1] = biological target: T1, dengue 2 protease (Dengue virus type 2, UniProt P14340); assay: Dengue 2 protease inhibition, hydrolysis of Z-RR-MCA; format: biochemical, dengue 2 virus; parameters: Activity with inhibitors: unit not given here; settings: for activity at 5 µM: 5 μM inhibitor; for activity at 10 µM: 10 μM inhibitor; for activity at 15 µM: 15 μM inhibitor; for activity at 40 µM: 40 μM inhibitor
T1 construct: The active site of the dengue protease is in the N-terminal part of NS3
T1 sequence (P14340 1476-1653): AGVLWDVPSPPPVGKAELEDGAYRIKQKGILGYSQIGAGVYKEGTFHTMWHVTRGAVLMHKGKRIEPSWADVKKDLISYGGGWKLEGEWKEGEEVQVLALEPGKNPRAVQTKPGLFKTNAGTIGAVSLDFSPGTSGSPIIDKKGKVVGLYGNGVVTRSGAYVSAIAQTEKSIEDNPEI

DENV2 protease replicon = DENV2 protease replicon assay; format: cell-based; settings: lowest concentration with observed activity in replicon assay
trypsin = biological target: T2, trypsin (Bos taurus, UniProt P00760); assay: Trypsin inhibition, fluorimetric enzyme assay; format: biochemical
T2 construct: gene PRSS1
T2 sequence (P00760 24-246): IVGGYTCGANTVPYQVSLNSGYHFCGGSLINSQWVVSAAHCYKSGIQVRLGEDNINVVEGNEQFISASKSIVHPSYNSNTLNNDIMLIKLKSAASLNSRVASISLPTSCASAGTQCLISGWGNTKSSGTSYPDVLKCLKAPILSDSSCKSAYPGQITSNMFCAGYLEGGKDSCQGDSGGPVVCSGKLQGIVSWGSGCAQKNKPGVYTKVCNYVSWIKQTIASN

plasmin = plasmin (Homo sapiens, UniProt P00747); assay: Plasmin inhibition, fluorimetric enzyme assay; format: biochemical; settings: 36.5° C., read-out: Residual Activity (%) Plasmin
Sequence of plasmin (P00747 581-810 limits assumed, species assumed): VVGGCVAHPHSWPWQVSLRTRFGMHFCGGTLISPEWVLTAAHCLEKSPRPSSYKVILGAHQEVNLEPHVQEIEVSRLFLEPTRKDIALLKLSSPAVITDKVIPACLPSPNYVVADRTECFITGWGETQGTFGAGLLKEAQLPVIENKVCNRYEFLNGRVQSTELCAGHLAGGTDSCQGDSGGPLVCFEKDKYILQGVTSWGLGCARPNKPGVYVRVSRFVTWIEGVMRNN
Sequence of plasmin (P00747 97-580 partner limits assumed, species assumed): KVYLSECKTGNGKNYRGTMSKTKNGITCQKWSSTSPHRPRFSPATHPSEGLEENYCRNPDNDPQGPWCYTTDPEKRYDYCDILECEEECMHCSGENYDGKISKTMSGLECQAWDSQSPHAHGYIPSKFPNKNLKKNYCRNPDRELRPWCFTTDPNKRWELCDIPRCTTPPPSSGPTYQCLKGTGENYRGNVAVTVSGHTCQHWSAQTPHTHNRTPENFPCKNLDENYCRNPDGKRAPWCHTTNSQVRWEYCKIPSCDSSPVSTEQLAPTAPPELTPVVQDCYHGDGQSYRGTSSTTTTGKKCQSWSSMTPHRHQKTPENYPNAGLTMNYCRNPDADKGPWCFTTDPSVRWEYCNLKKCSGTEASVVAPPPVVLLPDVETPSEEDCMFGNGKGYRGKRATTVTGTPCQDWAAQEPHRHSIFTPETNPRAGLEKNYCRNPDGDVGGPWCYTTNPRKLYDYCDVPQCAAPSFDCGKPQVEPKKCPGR
Description: The enzyme was dissolved in 1 mL MES buffer (10 mM), 1 mM CaCl2, pH 7.0 at 36.5° C. Substrate was added in a concentration 10 times the Km, and the inhibitor compounds of type C (C16-KGnK-C16, C16-KAnK-C16, and C16-RAnR-C16) were added in increasing concentrations (1.0, 5.0, 10.0, 20.0, 40.0 μL) from a stock solution of 2 mg in 1 mL DMSO. The residual activity was measured in a Hitachi F2500 spectrofluorimeter, and plots were fitted using the Grafit® software (Erithracus Software, Horley, Surrey, UK). All the assays were calculated by the Morrison equation for competitive inhibition (eq. 1, [Morrison, 1969]). The amount of substrate used for the tight binding titration experiments follow all the requirements, where [S]<<Km for all enzymes, so the Kiapp=Ki.
The first group of gemini-like peptide amphiphiles to be screened was that of C16-K(G or A)nK-C16 (compound type C, with R1=n-C15H31, R2=n-C16H33). […] The results of the Ki determination for trypsin, dengue 2 protease, and human furin are given in Table 1A; some general data for the inhibition by this type of compounds are given in Table 1B. For most compounds in Table 1 the Ki could be derived from competitive inhibition experiments. Judging from the Ki values with the relatively simple substrate Z-RR-MCA, the best inhibitors for dengue 2 protease contain alanine (A) rather than glycine (G).

thrombin = thrombin (Homo sapiens, UniProt P00734); assay: Thrombin inhibition, fluorimetric enzyme assay; format: biochemical; settings: 36.5° C., read-out: Residual Activity (%) Thrombin
dengue 2 protease [2] = biological target: T1, dengue 2 protease; assay: Dengue 2 protease inhibition in presence of Triton X-100 (detergent test, Nature Protocol); format: biochemical, dengue 2 virus; settings: 0.05% Triton X-100; for Activity with 0.05% Triton: initial activity in UAF/min
Description: A further investigation of the interactions of the geminoid inhibitors with biological membranes and with membrane-bound proteases is needed. […] The preparation and tests of peptides symmetrically, asymmetrically and singly alkylated with saturated, short (C6), and unsaturated (C18:1) alkyl tails are in progress.

DENV2 protease = biological target: T3, DENV2 protease (Dengue virus type 2, UniProt P14340); assay: DENV2 protease biochemical assay; settings: 50 μM inhibitor
T3 construct: The active site of the dengue protease is in the N-terminal part of NS3
T3 sequence (P14340 1476-1653): as the sequence (P14340 1476-1653) above
T3 sequence (P14340 1398-1437): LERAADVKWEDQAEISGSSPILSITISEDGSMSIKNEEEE

human furin = human furin (Homo sapiens, UniProt P09958); assay: Human furin inhibition, hydrolysis of Ac-RVRR-MCA; format: biochemical; settings: for activity at 5 µM: 5 μM inhibitor; for activity at 10 µM: 10 μM inhibitor; for activity at 15 µM: 15 μM inhibitor; for activity at 40 µM: 40 μM inhibitor
Sequence of human furin (P09958 108-794): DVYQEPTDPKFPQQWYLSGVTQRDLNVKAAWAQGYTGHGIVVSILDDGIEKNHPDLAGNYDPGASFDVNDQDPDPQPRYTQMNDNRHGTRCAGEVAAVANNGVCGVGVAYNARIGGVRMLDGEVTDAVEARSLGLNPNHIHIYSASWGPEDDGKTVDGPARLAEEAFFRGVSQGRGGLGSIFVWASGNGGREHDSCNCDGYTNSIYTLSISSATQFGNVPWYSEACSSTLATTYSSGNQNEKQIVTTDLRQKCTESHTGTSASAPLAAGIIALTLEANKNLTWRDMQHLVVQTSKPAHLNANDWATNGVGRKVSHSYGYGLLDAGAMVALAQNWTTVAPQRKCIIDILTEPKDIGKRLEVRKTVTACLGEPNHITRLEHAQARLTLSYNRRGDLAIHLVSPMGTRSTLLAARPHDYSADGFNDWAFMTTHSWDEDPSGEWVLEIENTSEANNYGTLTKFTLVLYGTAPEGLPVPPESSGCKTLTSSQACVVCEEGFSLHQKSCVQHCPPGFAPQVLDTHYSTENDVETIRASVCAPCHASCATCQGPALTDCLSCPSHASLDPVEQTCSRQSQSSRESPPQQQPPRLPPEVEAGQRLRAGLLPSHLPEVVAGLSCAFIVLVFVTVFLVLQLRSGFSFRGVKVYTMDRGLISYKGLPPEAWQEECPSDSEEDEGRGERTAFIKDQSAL
Procedure, shortened: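 Fluorogenic Ac-RVRR-MCA hydrolysis by furin in 10 mM MES, 1 mM CaCl2, pH 7.0, 36.5° C, […]. Residual activity measured by fluorescence at increasing inhibitor levels; Ki from Morrison equation for competitive tight-binding inhibition, with Kiapp correction for [S]˜Km.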

**Q.** `CCCCCCCCCCCCCCCCNC(=O)[C@H](CCCCN)NC(=O)[C@H](C)NC(=O)[C@H](CCCCN)NC(=O)CCCCCCCCCCCCCCC` [C16-KAK-C16] was tested. Which pKi (dengue 2 protease [1]) did it give?
**A.** 6.43

**Q.** What about the activity at 2.5 µM (dengue 2 protease [1]; 2.5 μM inhibitor, 36.5° C.) of the same molecule?
**A.** 87%

**Q.** What about the activity at 5 µM (dengue 2 protease [1]; 36.5° C.) of the same molecule?
**A.** 66%

**Q.** And the activity at 10 µM (dengue 2 protease [1]; 36.5° C.)?
**A.** 26%

**Q.** And the activity at 15 µM (dengue 2 protease [1]; 36.5° C.)?
**A.** 15%

**Q.** What about the activity at 40 µM (dengue 2 protease [1]; 36.5° C.) of the same molecule?
**A.** 6%

**Q.** What about the “Replicon activity [μM] (1)” value (DENV2 protease replicon) of the same molecule?
**A.** 0.3 µM

**Q.** And the pKi (trypsin)?
**A.** 4.82

**Q.** And the remaining activity at 15 µM (trypsin; 15 μM inhibitor, 36.5° C., read-out: Residual Activity (%) Trypsin)?
**A.** 68%

**Q.** And the remaining activity at 40 µM (trypsin; 40 μM inhibitor, 36.5° C., read-out: Residual Activity (%) Trypsin)?
**A.** 35%

**Q.** What about the remaining activity at 80 µM (trypsin; 80 μM inhibitor, 36.5° C., read-out: Residual Activity (%) Trypsin) of the same molecule?
**A.** 21%

**Q.** And the remaining activity at 15 µM (plasmin; 15 μM inhibitor)?
**A.** 62%

**Q.** What about the remaining activity at 40 µM (plasmin; 40 μM inhibitor) of the same molecule?
**A.** 20%

**Q.** What about the remaining activity at 80 µM (plasmin; 80 μM inhibitor) of the same molecule?
**A.** 3%

**Q.** What about the remaining activity at 15 µM (thrombin; 15 μM inhibitor) of the same molecule?
**A.** 80%

**Q.** What about the remaining activity at 40 µM (thrombin; 40 μM inhibitor) of the same molecule?
**A.** 64%

**Q.** And the remaining activity at 80 µM (thrombin; 80 μM inhibitor)?
**A.** 42%

**Q.** And the “% recovery in presence of Triton” value (dengue 2 protease [2]; 30 μM of inhibitor)?
**A.** 41%

**Q.** And the “Activity with 0.05% Triton” value (dengue 2 protease [2]; 30 μM of inhibitor)?
**A.** 91

**Q.** And the inhibition at 50 µM (DENV2 protease)?
**A.** 106%

**Q.** And the activity at 2.5 µM (human furin; 2.5 μM inhibitor, 36.5° C.)?
**A.** 43%

**Q.** And the activity at 5 µM (human furin; 36.5° C.)?
**A.** 30%

**Q.** And the activity at 10 µM (human furin; 36.5° C.)?
**A.** 10%

**Q.** What about the activity at 15 µM (human furin; 36.5° C.) of the same molecule?
**A.** 0%

**Q.** What about the activity at 40 µM (human furin; 36.5° C.) of the same molecule?
**A.** 0%

**Q.** And the pKi (human furin; 10 mM Mes.NaOH, pH 7.0, 2.35 μM Ac-RVRR-MCA, 37° C., read-out: Ki hFurin)?
**A.** 6.27

**Q.** How did the pKi (dengue 2 protease [1]) turn out when `CCCCCCCCCCCCCCCCNC(=O)[C@H](CCCCN)NC(=O)CNC(=O)CNC(=O)[C@H](CCCCN)NC(=O)CCCCCCCCCCCCCCC` [C16-KGGK-C16, C15H31CO-KGGK-NH—C16H33] (HELM PEPTIDE1{[CCCCCCCCCCCCCCCC(=O)[*:2]].K.G.G.K.[CCCCCCCCCCCCCCCCN[*:1]]}$$$$V2.0) was run?
**A.** 5.24

**Q.** And the activity at 5 µM (dengue 2 protease [1]; 36.5° C.)?
**A.** 88%

**Q.** And the activity at 10 µM (dengue 2 protease [1]; 36.5° C.)?
**A.** 84%

**Q.** And the Activity with inhibitors (dengue 2 protease [1]; 10 μM of inhibitor, 10 μM Z-RR-MCA, pH 9.0, 37° C., initial activity in UAF/min)?
**A.** 10

**Q.** What about the activity at 15 µM (dengue 2 protease [1]; 36.5° C.) of the same molecule?
**A.** 76%

**Q.** What about the activity at 20 µM (dengue 2 protease [1]; 20 μM inhibitor, 36.5° C.) of the same molecule?
**A.** 70%

**Q.** And the activity at 40 µM (dengue 2 protease [1]; 36.5° C.)?
**A.** 64%

**Q.** And the “Replicon activity [μM] (1)” value (DENV2 protease replicon)?
**A.** 0.3 µM

**Q.** What about the remaining activity at 18 µM (trypsin; 18 μM inhibitor, 36.5° C., read-out: Residual Activity (%) Trypsin) of the same molecule?
**A.** 79%

**Q.** What about the remaining activity at 55 µM (trypsin; 55 μM inhibitor, 36.5° C., read-out: Residual Activity (%) Trypsin) of the same molecule?
**A.** 45%

**Q.** What about the remaining activity at 85 µM (trypsin; 85 μM inhibitor, 36.5° C., read-out: Residual Activity (%) Trypsin) of the same molecule?
**A.** 24%

**Q.** What about the remaining activity at 18 µM (plasmin; 18 μM inhibitor) of the same molecule?
**A.** 30%

**Q.** And the remaining activity at 55 µM (plasmin; 55 μM inhibitor)?
**A.** 11%

**Q.** What about the remaining activity at 85 µM (plasmin; 85 μM inhibitor) of the same molecule?
**A.** 4%

**Q.** What about the remaining activity at 18 µM (thrombin; 18 μM inhibitor) of the same molecule?
**A.** 78%

**Q.** And the remaining activity at 55 µM (thrombin; 55 μM inhibitor)?
**A.** 46%

**Q.** What about the remaining activity at 85 µM (thrombin; 85 μM inhibitor) of the same molecule?
**A.** 33%

**Q.** What about the “% recovery in presence of Triton” value (dengue 2 protease [2]; 10 μM of inhibitor) of the same molecule?
**A.** 73%

**Q.** What about the “Activity with 0.05% Triton” value (dengue 2 protease [2]; 10 μM of inhibitor) of the same molecule?
**A.** 160

**Q.** What about the inhibition at 50 µM (DENV2 protease) of the same molecule?
**A.** 104%

**Q.** And the activity at 5 µM (human furin; 36.5° C.)?
**A.** 94%

**Q.** What about the activity at 10 µM (human furin; 36.5° C.) of the same molecule?
**A.** 85%

**Q.** And the activity at 15 µM (human furin; 36.5° C.)?
**A.** 76%

**Q.** What about the activity at 20 µM (human furin; 20 μM inhibitor, 36.5° C.) of the same molecule?
**A.** 67%

**Q.** And the activity at 40 µM (human furin; 36.5° C.)?
**A.** 3%
